Measurements: patent publication US11332451B2, “RIP1 inhibitory compounds and methods for making and using the same” (priority 2018, dated 2022)

Test system: TNF-alpha induced hypothermia
Test: acute hypothermia mouse model (TNF-alpha/zVAD-FMK induced hypothermia)
Format: in vivo, mice
Conditions: dose of 5 mg/kg, oral gavage
Experimental: In this example, an acute hypothermia mouse model assay was used to evaluate the ability of compounds disclosed herein to inhibit TNF-alpha induced hypothermia.
Female C57BL/6 mice are randomly grouped and weighed on Day −1. On the day of the study (Day 0), mice are administered vehicle or test article by oral gavage. Fifteen minutes after oral administration of test agents, each mouse is administered an intraperitoneal (IP) injection of solution containing recombinant human tumor necrosis factor alpha (TNF-a, 25.0 μg) and zVAD-FMK (200 μg). Body temperature is measured at 0 hours (before IP injections) and every hour via rectal probe temperature measuring device. Three (3) hours after IP injections of TNF-α and zVAD/FMK, mice are euthanized by CO2 asphyxiation and blood is collected via cardiac puncture. Serum and plasma are harvested for determination of cytokine and compound levels, respectively. Separate groups of mice (satellite mice) are included for the determination of compound levels in plasma at the time of administration of TNFa/zVAD-FMK.
(S)-5-benzyl-N-(5-methyl-4-oxo-2,3,4,5-tetrahydrobenzo[b][1,4]oxazepin-3-yl)-4H-1,2,4-triazole-3-carboxamide (WO 2014/125444), having a structure as illustrated below, was used as a comparative compound and was examined using a similar protocol as described by WO 2014/125444.

CN1C(=O)[C@@H](NC(=O)c2n[nH]c(Cc3ccccc3)n2)COc2ccc(C#CC(C)(C)O)cc21 [Compound I-30, (S)-5-benzyl-N-(7-(3-hydroxy-3-methylbut-1-yn-1-yl)-5-methyl-4-oxo-2,3,4,5-tetrahydrobenzo[b][1,4]oxazepin-3-yl)-1H-1,2,4-triazole-3-carboxamide]
inhibition of TNF-alpha induced hypothermia: greater than 85%
